Assay: xn = mol fraction of the nth substance listed
Conditions: 100 kPa, Liquid; for viscosity: Capillary tube (Ostwald / Ubbelohde) method; for mass density: Vibrating tube method

CCC[n+]1ccn(C)c1C.O=S(=O)([N-]S(=O)(=O)C(F)(F)F)C(F)(F)F + O=C1CCCO1
Conditions | mass density [kg/m3] | viscosity [mPa·s]
293.15 K, x1 = 0.0505 | 1184.15 | 2.47
293.15 K, x1 = 0.1001 | 1226.3 | 3.4
293.15 K, x1 = 0.1492 | 1259.98 | 4.72
293.15 K, x1 = 0.1998 | 1288.55 | 6.2
293.15 K, x1 = 0.3008 | 1332.65 | 9.95
293.15 K, x1 = 0.4031 | 1365.48 | 15.94
293.15 K, x1 = 0.5048 | 1390.46 | 25.66
293.15 K, x1 = 0.6031 | 1409.62 | 38.98
293.15 K, x1 = 0.6973 | 1424.67 | 54.53
293.15 K, x1 = 0.7994 | 1438.25 | 74.49
293.15 K, x1 = 0.8711 | 1446.46 | 89.77
293.15 K, x1 = 1 | 1459.14 | 121.7
298.15 K, x1 = 0.0505 | 1179.18 | 2.26
298.15 K, x1 = 0.1001 | 1221.4 | 3.07
298.15 K, x1 = 0.1492 | 1255.08 | 4.21
298.15 K, x1 = 0.1998 | 1283.68 | 5.44
298.15 K, x1 = 0.3008 | 1327.83 | 8.61
298.15 K, x1 = 0.4031 | 1360.68 | 13.23
298.15 K, x1 = 0.5048 | 1385.67 | 20.56
298.15 K, x1 = 0.6031 | 1404.85 | 30.47
298.15 K, x1 = 0.6973 | 1419.93 | 42.29
298.15 K, x1 = 0.7994 | 1433.53 | 57.35
298.15 K, x1 = 0.8711 | 1441.74 | 69.78
298.15 K, x1 = 1 | 1454.44 | 92.8
303.15 K, x1 = 0.0505 | 1174.28 | 2.1
303.15 K, x1 = 0.1001 | 1216.49 | 2.82
303.15 K, x1 = 0.1492 | 1250.18 | 3.78
303.15 K, x1 = 0.1998 | 1278.79 | 4.88
303.15 K, x1 = 0.3008 | 1322.96 | 7.6
303.15 K, x1 = 0.4031 | 1355.84 | 11.41
303.15 K, x1 = 0.5048 | 1380.86 | 17.18
303.15 K, x1 = 0.6031 | 1400.07 | 24.6
303.15 K, x1 = 0.6973 | 1415.16 | 33.28
303.15 K, x1 = 0.7994 | 1428.78 | 44.5
303.15 K, x1 = 0.8711 | 1437 | 54.92
303.15 K, x1 = 1 | 1449.72 | 72.1
308.15 K, x1 = 0.0505 | 1169.38 | 1.96
308.15 K, x1 = 0.1001 | 1211.58 | 2.56
308.15 K, x1 = 0.1492 | 1245.28 | 3.45
308.15 K, x1 = 0.1998 | 1273.9 | 4.42
308.15 K, x1 = 0.3008 | 1318.1 | 6.83
308.15 K, x1 = 0.4031 | 1351.01 | 9.99
308.15 K, x1 = 0.5048 | 1376.06 | 14.57
308.15 K, x1 = 0.6031 | 1395.28 | 20.33
308.15 K, x1 = 0.6973 | 1410.4 | 27.25
308.15 K, x1 = 0.7994 | 1424.03 | 35.98
308.15 K, x1 = 0.8711 | 1432.26 | 44.23
308.15 K, x1 = 1 | 1445 | 57.76
313.15 K, x1 = 0.0505 | 1164.47 | 1.82
313.15 K, x1 = 0.1001 | 1206.67 | 2.36
313.15 K, x1 = 0.1492 | 1240.38 | 3.18
313.15 K, x1 = 0.1998 | 1269.01 | 4.04
313.15 K, x1 = 0.3008 | 1313.24 | 6.09
313.15 K, x1 = 0.4031 | 1346.18 | 8.71
313.15 K, x1 = 0.5048 | 1371.25 | 12.55
313.15 K, x1 = 0.6031 | 1390.5 | 17.39
313.15 K, x1 = 0.6973 | 1405.64 | 22.52
313.15 K, x1 = 0.7994 | 1419.29 | 30.01
313.15 K, x1 = 0.8711 | 1427.53 | 36.05
313.15 K, x1 = 1 | 1440.28 | 46.53
318.15 K, x1 = 0.0505 | 1159.57 | 1.68
318.15 K, x1 = 0.1001 | 1201.76 | 2.2
318.15 K, x1 = 0.1492 | 1235.48 | 2.97
318.15 K, x1 = 0.1998 | 1264.13 | 3.73
318.15 K, x1 = 0.3008 | 1308.38 | 5.5
318.15 K, x1 = 0.4031 | 1341.35 | 7.79
318.15 K, x1 = 0.5048 | 1366.46 | 10.94
318.15 K, x1 = 0.6031 | 1385.73 | 15.01
318.15 K, x1 = 0.6973 | 1400.88 | 19.07
318.15 K, x1 = 0.7994 | 1414.55 | 24.95
318.15 K, x1 = 0.8711 | 1422.81 | 29.91
318.15 K, x1 = 1 | 1435.57 | 38.4
323.15 K, x1 = 0.0505 | 1154.66 | 1.58
323.15 K, x1 = 0.1001 | 1196.85 | 2.04
323.15 K, x1 = 0.1492 | 1230.58 | 2.73
323.15 K, x1 = 0.1998 | 1259.24 | 3.38
323.15 K, x1 = 0.3008 | 1303.52 | 4.93
323.15 K, x1 = 0.4031 | 1336.53 | 6.9
323.15 K, x1 = 0.5048 | 1361.66 | 9.56
323.15 K, x1 = 0.6031 | 1380.96 | 12.76
323.15 K, x1 = 0.6973 | 1396.13 | 16.4
323.15 K, x1 = 0.7994 | 1409.83 | 20.66
323.15 K, x1 = 0.8711 | 1418.1 | 24.69
323.15 K, x1 = 1 | 1430.87 | 31.89
